Several values for one entry are separate records, joined by “and”; a condition that tells them apart may be missing. Equal values may be shown once.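 Briefly, cells in 96-well plates were exposed to five compound concentrations for 48 h, and endpoints were estimated by linear interpolation. Abbreviation: GI50, concentration required for 50% inhibition of growth. TGI: total growth inhibition.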
Key:
Test in all cases: NCI anticancer screen, dose series, 48 h
OVCAR-8 ovarian = system: OVCAR-8 ovarian
MDA-MB-435 = system: MDA-MB-435
SK-MEL-5 melanoma = system: SK-MEL-5 melanoma
NCI-H460 lung = system: NCI-H460 lung
UACC-257 melanoma = system: UACC-257 melanoma
KM12 colon = system: KM12 colon
SF-539 CNS = system: SF-539 CNS
MALME-3M melanoma = system: MALME-3M melanoma
MDA-MB-231 breast = system: MDA-MB-231 breast
RPMI-8226 leukemia = system: RPMI-8226 leukemia

Structure (SMILES)	GI50 (OVCAR-8 ovarian)	TGI (OVCAR-8 ovarian)	GI50 (MDA-MB-435)	TGI (MDA-MB-435)	GI50 (SK-MEL-5 melanoma)	TGI (SK-MEL-5 melanoma)	GI50 (NCI-H460 lung)	TGI (NCI-H460 lung)	GI50 (UACC-257 melanoma)	TGI (UACC-257 melanoma)	GI50 (KM12 colon)	TGI (KM12 colon)	GI50 (SF-539 CNS)	TGI (SF-539 CNS)	GI50 (MALME-3M melanoma)	TGI (MALME-3M melanoma)	GI50 (MDA-MB-231 breast)	TGI (MDA-MB-231 breast)	GI50 (RPMI-8226 leukemia)	TGI (RPMI-8226 leukemia)
N#CSCC1CC(O)(c2ccccc2)C(c2ccccc2)C(c2ccc(F)cc2)O1 (stereo not drawn)	3.18 µM	11 µM	1.99 µM	4.9 µM	4.84 µM	17.2 µM	4.53 µM	18.1 µM	3.66 µM	13.5 µM	2.32 µM	5.85 µM	3.15 µM	7.69 µM	2.08 µM	5.02 µM	2.53 µM	8.62 µM	1.67 µM	7.03 µM
COC[C@H]1OC(=O)c2coc3c2[C@@]1(C)C1=C(C3=O)[C@@H]2CCC(=O)[C@@]2(C)C[C@H]1OC(C)=O		> 100 µM		> 54.3 µM		61 µM		> 100 µM		> 100 µM		> 100 µM		31 µM	1.44 µM	39.3 µM	14.4 µM	> 100 µM		> 63.6 µM
C#CC[C@H](c1nc2cc(Cl)ccc2c(=O)n1Nc1ccccc1)N(CCCN)C(=O)c1cccc(Cl)c1F	0.511 µM	1.98 µM	0.0281 µM	0.0915 µM	0.727 µM	2.14 µM	0.161 µM	1.31 µM	1.02 µM	2.37 µM	0.18 µM	1.63 µM	0.183 µM	0.65 µM	1.05 µM	2.45 µM	0.107 µM	0.601 µM	0.131 µM	1.16 µM
Cn1c2ccccc2c2nnc(N/N=C/c3ccccn3)nc21	0.426 µM	> 84.2 µM	0.459 µM	> 54.6 µM	0.24 µM	0.806 µM	0.346 µM	5.69 µM	0.433 µM		0.535 µM	> 38.3 µM	0.284 µM	0.854 µM	0.334 µM	2.26 µM	0.478 µM	38.1 µM	0.367 µM	16.6 µM
COc1ccc(C2=C(c3cn(C)c4ccccc34)C(=O)NC2=O)cc1OC	15.6 µM	> 25 µM	1.1 µM	> 25 µM	6.11 µM	> 22.3 µM	8.52 µM	> 25 µM	> 25 µM	> 25 µM	6.34 µM	> 25 µM	5.51 µM	> 18.1 µM	> 25 µM	> 25 µM	10.7 µM	> 25 µM	9.61 µM	> 25 µM
Cc1ccc2c(=O)[nH]sc2c1		33.2 µM		27.6 µM		25.6 µM		> 100 µM		44.1 µM				26.9 µM		45.6 µM		31.2 µM		45.1 µM
CC1(C)N=C(N)N=C(N)N1c1cccc(CCCCc2ccc(S(=O)(=O)F)cc2Cl)c1	6.17 µM	> 61.4 µM	0.611 µM	18.5 µM	1.87 µM	16.4 µM	0.465 µM	> 38.6 µM	2.15 µM	20.8 µM	1.72 µM	15.7 µM	2.06 µM	20.1 µM	1.12 µM	28.2 µM	10.9 µM	43.1 µM	10.8 µM	41.9 µM
Cc1nn2c(/C=C3/C(=O)Nc4ccc(Cl)cc43)c(-c3ccccc3)nc2s1	2.19 µM	5.76 µM	3.24 µM	13.5 µM	4.07 µM	23.2 µM	3.18 µM	11.7 µM	3.11 µM	11.1 µM	2.11 µM	5.88 µM	2.25 µM	6.54 µM	2.17 µM	5.57 µM	2.29 µM	8.41 µM	2.94 µM	22.1 µM
CCN(CC)CCCC(C)Nc1cnc(C(=O)Nc2cc(F)cc3cccnc23)cn1 (stereo not drawn)	7.03 µM and 1.29 µM	20.2 µM and 5.77 µM	3.4 µM and 1.45 µM	12.8 µM and 3.43 µM	1.78 µM and 1.58 µM	3.37 µM and 2.95 µM	4.64 µM and 2.06 µM	16.6 µM and 4.22 µM	1.99 µM and 0.563 µM	4.13 µM and 1.94 µM	6.09 µM and 1.78 µM	19.5 µM and 3.34 µM	10.3 µM and 1.52 µM	22.2 µM and 2.89 µM	1.77 µM and 0.983 µM	3.38 µM and 2.28 µM	3.42 µM and 0.568 µM	12.8 µM and 2.02 µM	2.97 µM and 0.502 µM	12.2 µM and > 20.5 µM
c1ccc2[nH]c(-c3ccc(OCCCCCOc4ccc(-c5nc6ccccc6[nH]5)cc4)cc3)nc2c1	4.06 µM	11.6 µM	1.63 µM	3.94 µM	1.15 µM	4.94 µM	1.6 µM	> 100 µM	1.65 µM	3.83 µM	1.54 µM	4.17 µM	0.835 µM	2.3 µM	2.12 µM	3.93 µM	2.07 µM	7.08 µM	2.21 µM	6.51 µM
CO/N=C1/NC(=O)/C(=C/c2ccc3ncccc3c2)S1	> 22.6 µM	> 25 µM	15 µM	> 25 µM	> 14.1 µM	> 25 µM	9.08 µM	> 25 µM	18 µM	> 25 µM	> 25 µM	> 25 µM	8.27 µM	> 25 µM	13.9 µM	> 25 µM	> 25 µM	> 25 µM	> 25 µM	> 25 µM
CCS(=O)(=O)c1ccc(OC)c(Nc2nccc(N(C)c3ccc4c(C)[nH]nc4c3)n2)c1	7.22 µM	> 22.2 µM	5.34 µM	13.5 µM	4 µM	8.38 µM	8.67 µM	> 25 µM	7.57 µM	> 24 µM	5.7 µM	> 25 µM	4.17 µM	9.86 µM	8.48 µM	> 25 µM	3.66 µM	9.45 µM	8.35 µM	> 25 µM
Cc1ccc(NS(=O)(=O)c2cc(C)ccc2C)cc1	5.94 µM	42.7 µM	0.351 µM	2.57 µM	2.79 µM	13.8 µM	3.4 µM	13.5 µM	10.2 µM	47.4 µM	1.73 µM	16.5 µM	4.21 µM	15.1 µM	5.36 µM	38.6 µM	4.44 µM	25.7 µM	12.7 µM	> 100 µM
COc1cc2c(OC)c(c1)CCCC1=CC(=O)C=C(CCC2)C1=O		> 31.6 µM		56.2 µM		> 100 µM		> 100 µM		> 100 µM		59.6 µM		> 69.4 µM		75.8 µM		> 66.4 µM		25.9 µM
O=C(Nc1ccc2oc(=O)c(C(=O)O)cc2c1)Oc1ccccc1		> 100 µM		> 100 µM		> 100 µM		> 100 µM		> 100 µM		> 100 µM		> 100 µM		> 100 µM		> 100 µM		> 100 µM
Fc1ccc(-c2nnc3sc(-c4cccc(Cl)c4)nn23)cc1Cl	> 100 µM	> 100 µM	> 100 µM	> 100 µM	> 100 µM	> 100 µM	> 100 µM	> 100 µM	> 100 µM	> 100 µM	> 100 µM	> 100 µM	> 100 µM	> 100 µM	> 100 µM	> 100 µM	> 100 µM	> 100 µM	> 100 µM	> 100 µM
Cn1c2ccc([N+](=O)[O-])cc2c(=O)c2c(O)cc(O)cc21		25.9 µM		> 100 µM		> 100 µM		> 100 µM		> 100 µM		> 100 µM		55.2 µM		64.6 µM		> 100 µM		> 100 µM
CNC1NC(=O)c2ccccc2N1Cc1ccc(F)cc1 (stereo not drawn)		> 100 µM		> 100 µM		> 100 µM		> 100 µM		> 100 µM		> 100 µM		> 100 µM		> 100 µM		> 100 µM		> 100 µM
CCOC(=O)C#Cc1ccc(C#CC(=O)OCC)cc1		> 23.2 µM		3.86 µM		> 27.4 µM		> 46.8 µM		> 56.4 µM		> 21.2 µM		> 47.5 µM		21.3 µM		> 22.7 µM		> 25.3 µM
CN1CCN(Cc2ccc(NC(=O)c3[nH]ncc3Nc3ncnc4c3CCC4)cc2)CC1	3.27 µM	13.5 µM	1.8 µM	12.3 µM	0.874 µM	13.3 µM	1.87 µM	10.6 µM	3.49 µM	15.4 µM	0.767 µM	11.1 µM	0.52 µM	2.61 µM	3.26 µM	8.06 µM	2.98 µM	7.8 µM	2.82 µM	7.39 µM
CC(=O)Oc1cccc2c1C(=O)C(Br)(Br)CCC2		13 µM		13.4 µM		14.4 µM		43.6 µM		25 µM		23.2 µM		23.1 µM		5.59 µM		8.41 µM		7.34 µM
CN(C)CC#Cc1cccc(C(=O)c2cnn(-c3ccc(F)cc3)c2N)c1	> 25 µM	> 25 µM	11.9 µM	> 25 µM	16.1 µM	> 25 µM	> 25 µM	> 25 µM	> 25 µM	> 25 µM	> 25 µM	> 25 µM	> 25 µM	> 25 µM	> 25 µM	> 25 µM	> 25 µM	> 25 µM	> 25 µM	> 25 µM
CCc1oc2ccccc2c1C(=O)c1cc(Br)c(O)c(Br)c1		> 100 µM		> 100 µM		32.2 µM		34.2 µM		42.8 µM		55.1 µM		32.9 µM		43.2 µM		44.7 µM		75.5 µM
COc1cc(-c2cn(-c3ccc(Cl)cc3)c(=O)[nH]2)cc(OC)c1OC	> 100 µM	> 100 µM	> 100 µM	> 100 µM	> 100 µM	> 100 µM	> 100 µM	> 100 µM	> 100 µM	> 100 µM	> 100 µM	> 100 µM	> 100 µM	> 100 µM	> 100 µM	> 100 µM	> 100 µM	> 100 µM	> 100 µM	> 100 µM
O=C(Nc1ccncc1)C(=O)c1cn(S(=O)(=O)c2ccccc2F)c2ccccc12	2.7 µM	52.4 µM	0.188 µM	0.695 µM	0.693 µM	16.2 µM	6.75 µM	> 100 µM	5.51 µM	> 78.4 µM	0.837 µM	> 100 µM	1.19 µM	7.88 µM	1.65 µM	> 100 µM	3.97 µM	64.9 µM	2.54 µM	> 32.7 µM
CCC(C)/C=C(C)/C=C/C(=O)c1c(O)c(-c2ccc(O)cc2)c[nH]c1=O (stereo not drawn)	3.12 µM	13.9 µM	2.94 µM	11.2 µM	4.29 µM	16.7 µM	3.04 µM	8.82 µM	4.25 µM	16.4 µM	3.41 µM	12.4 µM	3.3 µM	12.5 µM	2.36 µM	14.1 µM	5.09 µM	21.4 µM	3.45 µM	17.6 µM
O=C(CNC(=O)c1cccc2ccccc12)Nc1ccccc1Oc1ccccc1	0.315 µM	> 10 µM	0.0425 µM	0.313 µM	0.262 µM	4.1 µM	0.333 µM	> 10 µM			0.289 µM	> 10 µM	0.237 µM	0.695 µM		> 10 µM	0.982 µM	> 10 µM	0.318 µM	> 10 µM
Cl.Fc1c[c-]c(-c2ccccn2)c(F)c1.[Pt].c1ccc([PH+](CC[PH+](c2ccccc2)c2ccccc2)c2ccccc2)cc1			0.127 µM	0.51 µM	0.13 µM	0.261 µM			0.165 µM	0.975 µM	0.0772 µM	0.277 µM	0.164 µM	0.976 µM	0.061 µM	0.409 µM	0.178 µM	0.496 µM	0.0341 µM	0.249 µM
